Reference: patent US20180303853A1, “COMPOSITIONS AND METHODS FOR TREATING BACTERIAL INFECTIONS USING CEFTAROLINE” (priority 2017, published 2018)

What was measured:
[1] = test system: CYP1A2, CYP2B6, CYP2C8, CYP2C9, CYP2CI9, or CYP3A4/5; assay: CYP induction in human hepatocytes; type: in vitro ADME
[2] = human, in vivo
Protocol: (§2) Study drug: Ceftaroline fosamil was administered in two consecutive 300 mg intravenous (IV) infusions over 30 minutes, every 12 hours (q12h). The 600-mg dose of ceftaroline fosamil infused over 60 minutes was split into two infusions in order to maintain the blind. For subjects with moderate renal impairment (30 mL/min<CrCl≤50 mL/min), as estimated by the Cockroft-Gault formula, unblinded pharmacy staff or unblinded study staff could adjust the dose of ceftaroline fosamil to two consecutive 200 mg infusions and readjust dose to two 300 mg infusions when renal function improved (CrCl>50 mL/min). The duration of treatment was between 5 to 7 days.
(§3) All subjects initially received two doses (500 mg every 12 hours) of oral adjunctive therapy with clarithromycin following randomization.
(§4) All subjects who received any amount of study drug were included in the safety analysis. Safety measures included monitoring for adverse events (AE) up to TOC and serious adverse events (SAE) through LFU; recording vital signs, physical examination, electrocardiogram (ECG), and clinical laboratory findings (clinical chemistry, hematology, and urinalysis); at prespecified times throughout the study.

human plasma protein = type: in vitro ADME
[3] = test system: CYP1A1, CYP1A2, CYP2A6, CYP2B6, CYP2C8, CYP2C9, CYP2C19, CYP2D6, CYP2E1 and CYP3A4; assay: Cytochrome P450 inhibition in human liver microsomes; type: in vitro ADME; conditions: microsomes
[4] = human, microsomes
[5] = Example 5 CAP study, safety
Protocol: as §2, §3, §4

H. parainfluenzae = assay: Example 4 CAP study, outcome by baseline pathogen; type: in vivo
Source text: (§1) Per-pathogen clinical cure rate and favorable microbiological outcome rate at TOC in the mMITTE and ME Populations;

S. aureus = assay: Example 4 CAP study, outcome by baseline pathogen; type: in vivo
Source text: as §1

K. pneumoniae = assay: Example 4 CAP study, outcome by baseline pathogen; type: in vivo
Source text: as §1

S. pneumoniae = assay: Example 4 CAP study, outcome by baseline pathogen; type: in vivo
Source text: as §1

H. influenzae = assay: Example 4 CAP study, outcome by baseline pathogen; type: in vivo
Source text: as §1

MDRSP = assay: Example 5 CAP study, outcome by baseline pathogen; type: in vivo, S. pneumoniae
Source text: as §1

[6] = human, in vivo; remark: listed apart in the source
[7] = test system: community-acquired pneumonia (CAP); assay: Example 5 Phase 3 study, ceftaroline vs ceftriaxone with adjunctive clarithromycin in CAP, efficacy; type: in vivo, human
Source text: The secondary objective of the study was to evaluate the following: the clinical response at end-of-therapy (EOT); the microbiological favorable outcome rate at TOC; the overall (clinical and radiographic) success rate at TOC; the clinical and microbiological response by pathogen at TOC; clinical relapse at late follow-up (LFU); microbiological reinfection/recurrence at LFU; and safety.
The primary efficacy outcome measures were the per-subject clinical cure rate at TOC in the CE and MITTE Populations. Subjects were considered clinically cured at TOC if they had total resolution of all signs and symptoms of the baseline infection, or improvement of the infection such that no further antimicrobial therapy was necessary.
Non-inferiority was concluded if the lower limit of the 95% CI was higher than −10%.

[8] = human, in vivo; remark: listed apart in the source
Protocol: The pharmacokinetics of ceftaroline were evaluated in adolescent patients (ages 12 to 17) with normal renal function.
No dose adjustment is required based on gender.

CCO/N=C(\C(=O)N[C@@H]1C(=O)N2C(C(=O)[O-])=C(Sc3nc(-c4cc[n+](C)cc4)cs3)CS[C@H]12)c1nsc(N)n1 [Ceftaroline, ceftaroline]
induction of CYP isoenzymes [1]: not inducers | Adverse event: Constipation [2]: 7 (2.3) % | TEAEs assessed as drug related by the Investigators [2]: 17.1% | study-drug-related TEAE: headache [2]: 1.0% | study-drug-related TEAE: hepatic enzyme increased [2]: 0.3% | study-drug-related TEAE: sinus bradychardia [2]: 1.0% | binding to human plasma protein (human plasma protein): approximately 20% | inhibition of major cytochrome P450 isoenzymes [3]: neither ceftaroline fosamil nor ceftaroline inhibits | metabolic turnover [4]: < 12% | hemolytic anemia [5]: No evidence of hemolytic anemia | percentage of deaths [5]: 1.7% | Favorable Microbiological Outcome at TOC by Baseline Pathogen (H. parainfluenzae; Example 4, ME): 9/9 (100.0) | Clinical Cure Rate at the TOC Visit by Baseline Pathogen (H. parainfluenzae; Example 4, ME Population): 9/9 (100.0) | Favorable Microbiological Outcome at TOC by Baseline Pathogen (S. aureus; Example 4, ME): 11/15 (73.3) | Clinical Cure Rate at the TOC Visit by Baseline Pathogen (S. aureus; Example 4, ME Population): 10/15 (66.7) | Favorable Microbiological Outcome at TOC by Baseline Pathogen (K. pneumoniae; Example 4, ME): 6/6 (100.0) | Clinical Cure Rate at the TOC Visit by Baseline Pathogen (K. pneumoniae; Example 4, ME Population): 6/6 (100.0) | Favorable Microbiological Outcome at TOC by Baseline Pathogen (S. pneumoniae; Example 4, ME): 35/39 (89.7) | Clinical Cure Rate at the TOC Visit by Baseline Pathogen (S. pneumoniae; Example 4, ME Population): 33/39 (84.6) | Favorable Microbiological Outcome at TOC by Baseline Pathogen (H. influenzae; Example 4, ME): 13/15 (86.7) | Clinical Cure Rate at the TOC Visit by Baseline Pathogen (H. influenzae; Example 4, ME Population): 13/15 (86.7) | Favorable Microbiological Outcome at TOC by Baseline Pathogen (MDRSP; Example 5, ME): 2/2 (100.0) | Clinical Cure Rate at the TOC Visit by Baseline Pathogen (MDRSP; Example 5, ME Population): 2/2 (100.0) | CL/Fm [6]: 9.60 (1.40) L/h | dose dependence of Cmax and AUC [6]: increased approximately in proportion to increases in dose | t1/2 [6]: 2.66 (0.40) h | Difference (ceftaroline minus ceftriaxone), Clinical Cure Rate at EOT ([7]; Example 5, CE): 7.6% | Difference (ceftaroline minus ceftriaxone), Clinical Success at TOC ([7]; Example 5, CE): 8.4% | Clinical Success at the TOC Visit ([7]; Example 5, CE population): 194 (86.6) % | Per-subject Clinical Cure Rate at the EOT Visit ([7]; Example 5, CE population): 197 (87.9) % | Difference (ceftaroline minus ceftriaxone), Favorable Microbiological Outcome at TOC ([7]; Example 5, ME): 11.0% | Favorable Microbiological Outcome at the TOC Visit ([7]; Example 5, ME population): 62 (89.9) % | Difference (ceftaroline minus ceftriaxone), Clinical Cure Rate at EOT ([7]; Example 5, MITTE): 6.3% | Difference (ceftaroline minus ceftriaxone), Clinical Success at TOC ([7]; Example 5, MITTE): 6.2% | Clinical Success at the TOC Visit ([7]; Example 5, MITTE population): 244 (83.8) % | Per-subject Clinical Cure Rate at the EOT Visit ([7]; Example 5, MITTE population): 253 (86.9) % | Difference (ceftaroline minus ceftriaxone), Favorable Microbiological Outcome at TOC ([7]; Example 5, mMITTE): 9.3% | Favorable Microbiological Outcome at the TOC Visit ([7]; Example 5, mMITTE population): 66 (88.0) % | AUC higher in female vs male subjects (trend) ([8]; both): 6-15% | Cmax higher in female vs male subjects (trend) ([8]; both): 17-22% | mean recovery in the dialysate, share of the administered dose ([8]; 4 h): 21.6% | mean AUC higher than in healthy young adults (18-45 years) ([8]; iv, 600 mg): ~33%
